Assay results from patent US20080280860A1, “Use of Vitamin D Compounds to Treat Endometriosis” (BioXell S.p.A., priority 2005, published 2008).

Columns and labels:
endometriotic lesions = assay: In vivo model of endometriosis (lesion weight); set-up: species or system Balb/c mice; conditions: Example 2; each compound at its maximum tolerated level, ip once a day, 5 days a week for two weeks
Description: Balb/c donor mice were injected with estrogen (Estradiol AMSA; 3 ug/mouse) and one week later were sacrificed and the uterus was removed, the two horns isolated and reduced to small fragments. The fragments derived from the isolated uterine horns were resuspended in saline with ampicillin (1 mg/ml) and then injected into the peritoneum of two recipient Balb/c mice, previously anesthesized, through a 0.5 cm incision in the abdominal wall. […] Antibiotic (ampicillin 1 mg/ml) was administered on the day of the surgery and on the day after. […] […] Lesions can be identified as translucid isolated or grouped cysts mainly found on the abdominal wall, on the pancreas, and around the uterus. In some cases the lesions are necrotic. The lesions were carefully removed and put on a glass slide to dry for 48 hours, and then were weighed. In other experiments lesions are transferred to a lysis solution and mRNA isolated for gene expression analysis. For immunohistochemical analysis, lesions were frozen immediately after isolation.
Balb/c donor mice were injected with estrogen (Estradiol AMSA; 3 ug/mouse) and one week later were sacrificed and the uterus was removed, the two horns isolated and reduced to small fragments. The fragments derived from the isolated uterine horns were resuspended in saline with ampicillin (1 mg/ml) and then injected into the peritoneum of two recipient Balb/c mice, previously anesthetised, through a 0.5 cm incision in the abdominal wall. Antibiotic (ampicillin 1 mg/ml) was administered on the day of the surgery and on the day after. […] Dosage levels of the test compounds were at the maximum tolerated levels for the compound in question, i.e. 1-alpha-fluoro-25-hydroxy-16,23E-diene-26,27-bishomo-20-epi-cholecalciferol (Compound A) 100 ug/kg, calcitriol (Compound B) 0.3 ug/kg and 1,25-dihydroxy-21-(3-hydroxy-3-methylbutyl)-19-nor-cholecalciferol (Compound C) 3 ug/kg.
(§1) […] Lesions can be identified as translucid isolated or grouped cysts mainly found on the abdominal wall, on the pancreas, and around the uterus. In some cases the lesions are necrotic. The lesions were carefully removed and put on a glass slide to dry for 48 hours, and then were weighed.
Balb/c donor mice were injected with estrogen (Estradiol AMSA; 3 ug/mouse) and one week later were sacrificed and the uterus was removed, the two horns isolated and reduced to small fragments. The fragments derived from the isolated uterine horns were resuspended in saline with ampicillin (1 mg/ml) and then injected into the peritoneum of recipient Balb/c mice, previously anesthetised, through a 0.5 cm incision in the abdominal wall. Antibiotic (ampicillin 1 mg/ml) was administered on the day of the surgery and on the day after. […]
as §1, with “weighed. At least 10 test animals were used in each group.” for “weighed.”
Further experiments were performed using Compound A at 100 ug/kg but varying the time at which administration of the vitamin D compound was initiated and the time point at which administration was ceased. Specifically: (i) administration for 1 week prior to injection of the uterine fragments (ii) administration for 2 weeks subsequent to injection of the uterine fragments (iii) administration for 1 week prior and 2 weeks subsequent to injection of the uterine fragments (iv) administration for 2 weeks, initiated two days subsequent to injection of the uterine fragments (v) administration for 2 weeks, initiated two weeks subsequent to injection of the uterine fragments. In these experiments, subjects were sacrificed at the later of two weeks post injection or the end of the treatment period as appropriate.

Maximum tolerated dose = assay type: in vivo, Balb/c mice; conditions: Balb/c, mouse, in vivo; mice, ip; above it the compound becomes hypercalcemic

Structure (SMILES): C=C1/C(=C\C=C2/CCC[C@]3(C)[C@@H]([C@H](C)CCCC(C)(C)O)CC[C@@H]23)C[C@@H](O)C[C@@H]1O [Compound B, calcitriol, reference compound]
- lesion weight, treated versus control (vehicle only), statistical analysis (endometriotic lesions): significant reduction in lesion weight
- MTD (Maximum tolerated dose): 0.3 µg/kg

Structure (SMILES): CC(C)(O)CCCC(CCCC(C)(C)O)[C@H]1CC[C@H]2/C(=C/C=C3C[C@@H](O)C[C@H](O)C3)CCC[C@]12C [Compound C, 1,25-dihydroxy-21-(3-hydroxy-3-methylbutyl)-19-nor-cholecalciferol]
- lesion weight, treated versus control (vehicle only), statistical analysis (endometriotic lesions): no significant reduction in lesion weight
- MTD (Maximum tolerated dose): 3 µg/kg
